The values below come from patent US20070049593A1 (priority 2004, published 2007).

Counter-ions that a name gives are not always drawn. Like-named read-outs stand apart in the source and are kept apart here.

This assay deals with T1, HCV polymerase (Hepatitis C virus genotype 1b, UniProt P26663).
T1 construct: a region encoding NS5B (J Virol 1991 March, 65(3), 1105-13, 544 amino acids after deletion of 47 amino acids on the C-terminal); 6xHis (C); made in house; host or cells: Escherichia coli
In words: biochemical. Further details: species or system HCV BK strain. Put shortly:
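His-tagged NS5B (BK strain, 47-aa C-terminal deletion, E. coli-expressed) at 0.5 μg/ml copied 5 μg/ml run-off RNA bearing the HCV 3′ UTR with 2 μM UTP plus [3H]UTP, 50 μM ATP/GTP, in pH 7.5 Tris with 5 mM MgCl2, 25 °C, 90 min. TCA-precipitated RNA was counted and IC50 calculated.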

One may read the IC50 as the concentration that gives 50% inhibition.

T1 sequence (P26663 2420-2963): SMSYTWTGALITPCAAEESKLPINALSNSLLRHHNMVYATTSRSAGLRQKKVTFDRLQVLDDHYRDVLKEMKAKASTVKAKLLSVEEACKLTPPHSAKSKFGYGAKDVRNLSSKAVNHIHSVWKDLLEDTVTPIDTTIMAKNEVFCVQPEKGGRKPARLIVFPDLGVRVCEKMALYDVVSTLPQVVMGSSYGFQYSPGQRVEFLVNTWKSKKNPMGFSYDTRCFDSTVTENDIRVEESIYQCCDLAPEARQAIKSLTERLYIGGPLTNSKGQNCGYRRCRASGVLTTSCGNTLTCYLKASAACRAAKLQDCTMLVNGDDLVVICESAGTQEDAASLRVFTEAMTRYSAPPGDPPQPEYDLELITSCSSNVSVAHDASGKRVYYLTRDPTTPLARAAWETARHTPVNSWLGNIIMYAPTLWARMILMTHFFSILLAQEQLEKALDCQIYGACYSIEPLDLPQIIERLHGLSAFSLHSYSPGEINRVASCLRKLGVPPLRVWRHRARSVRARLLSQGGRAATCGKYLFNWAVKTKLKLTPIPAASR

For the compound `COc1ccc2c(c1)OCCn1c-2c(C2CCCCC2)c2ccc(C(=O)NC(C)(C)c3ncc(-c4ccc(C(=O)O)cc4)[nH]3)cc21` [Example 2-540, 4-(2-{1-[(12-cyclohexyl-3-methoxy-6,7-dihydro-5-oxa-7a-azadibenzo[a,e]azulene-9-carbonyl)amino]-1-methylethyl}-3H-imidazol-4-yl)benzoic acid monohydrochloride], under “read-out: HCV polymerase inhibitory activity IC50, 25° C., 90 min, [5,6-3H]UTP incorporation into RNA”, the concentration for half-maximal inhibition (IC50) was under 100 nM.
As to `COc1ccc2c(c1)OCCn1c-2c(C2CCCCC2)c2ccc(C(=O)NC3(C(=O)Nc4ccc5oc(=O)ccc5c4)CCC3)cc21` [Example 2-541, N-[1-(2-oxo-2H-chromen-6-ylcarbamoyl)cyclobutyl]-12-cyclohexyl-3-methoxy-6,7-dihydro-5-oxa-7a-azadibenzo[a,e]azulene-9-carboxamide], the IC50 was under 100 nM.
The same measure, in the same setting: as for `COc1ccc2c(c1)OCCn1c-2c(C2CCCCC2)c2ccc(C(=O)N[C@@H](Cc3ccc(OCc4ccccc4)cc3)c3noc(C)n3)cc21` [Example 2-542, N—[(S)-2-(4-benzyloxyphenyl)-1-(5-methyl-1,2,4-oxadiazol-3-yl)ethyl]-12-cyclohexyl-3-methoxy-6,7-dihydro-5-oxa-7a-azadibenzo[a,e]azulene-9-carboxamide], the figure is under 100 nM; as for `COc1ccc2c(c1)OCCn1c-2c(C2CCCCC2)c2ccc(C(=O)NC3(C(=O)Nc4ccc(/C=C/C(N)=O)cc4)CCC3)cc21` [Example 2-543, N-{1-[4-((E)-2-carbamoylvinyl)phenylcarbamoyl]cyclobutyl}-12-cyclohexyl-3-methoxy-6,7-dihydro-5-oxa-7a-azadibenzo[a,e]azulene-9-carboxamide], under 100 nM.
The same measure, in the same setting: the result for `CNC(=O)/C=C/c1ccc(NC(=O)C2(NC(=O)c3ccc4c(C5CCCCC5)c5n(c4c3)CCOc3cc(OC)ccc3-5)CCC2)cc1` [Example 2-544, N-{1-[4-((E)-2-methylcarbamoylvinyl)phenylcarbamoyl]cyclobutyl}-12-cyclohexyl-3-methoxy-6,7-dihydro-5-oxa-7a-azadibenzo[a,e]azulene-9-carboxamide] reads under 100 nM; that for `COc1ccc2c(c1)OCCn1c-2c(C2CCCCC2)c2ccc(C(=O)NC(C)(C)c3ncc(-c4ccc(CO)cc4)[nH]3)cc21` [Example 2-545, N-{1-[5-(4-hydroxymethylphenyl)-1H-imidazol-2-yl]-1-methylethyl}-12-cyclohexyl-3-methoxy-6,7-dihydro-5-oxa-7a-azadibenzo[a,e]azulene-9-carboxamide], under 100 nM; that for `COc1ccc2c(c1)OCCn1c-2c(C2CCCCC2)c2ccc(C(=O)NC(C)(C)c3ncc(-c4ccc(C(N)=O)cc4)[nH]3)cc21` [Example 2-546, N-{1-[5-(4-carbamoylphenyl)-1H-imidazol-2-yl]-1-methylethyl}-12-cyclohexyl-3-methoxy-6,7-dihydro-5-oxa-7a-azadibenzo[a,e]azulene-9-carboxamide], under 100 nM.
Turning to `CNC(=O)c1ccc(-c2cnc(C(C)(C)NC(=O)c3ccc4c(C5CCCCC5)c5n(c4c3)CCOc3cc(OC)ccc3-5)[nH]2)cc1` [Example 2-547, N-{1-methyl-1-[5-(4-methylcarbamoylphenyl)-1H-imidazol-2-yl]ethyl}-12-cyclohexyl-3-methoxy-6,7-dihydro-5-oxa-7a-azadibenzo[a,e]azulene-9-carboxamide], the IC50 was under 100 nM.
Consider `COc1ccc2c(c1)OCCn1c-2c(C2CCCCC2)c2ccc(C(=O)NC(C)(C)c3ncc(-c4ccc(/C=C/C(=O)O)cc4)[nH]3)cc21` [Example 2-548, (E)-3-[4-(2-{1-[(12-cyclohexyl-3-methoxy-6,7-dihydro-5-oxa-7a-azadibenzo[a,e]azulene-9-carbonyl)amino]-1-methylethyl}-3H-imidazol-4-yl)phenyl]acrylic acid], for which the IC50 is under 100 nM.
The same measure, in the same setting: the result for `O=C(CN1CCCCC1)Nc1ccccc1-c1cccc2c1OCCn1c-2c(C2CCCCC2)c2ccc(C(=O)O)cc21` [Example 2-549, 12-cyclohexyl-4-{2-[2-(piperidin-1-yl)acetylamino]phenyl}-6,7-dihydro-5-oxa-7a-azadibenzo[a,e]azulene-9-carboxylic acid] reads under 100 nM; that for `COc1ccc2c(c1)OCCn1c-2c(C2CCCCC2)c2ccc(C(=O)NC3(C(=O)Nc4cccc(/C=C/C(=O)O)c4)CCC3)cc21` [Example 2-550, (E)-3-[3-({1-[(12-cyclohexyl-3-methoxy-6,7-dihydro-5-oxa-7a-azadibenzo[a,e]azulene-9-carbonyl)amino]cyclobutanecarbonyl}amino)phenyl]acrylic acid], under 100 nM; that for `CCOc1ccc2c(c1)OCCn1c-2c(C2CCCCC2)c2ccc(C(=O)NC3(C(=O)Nc4cccc(/C=C/C(=O)O)c4)CCC3)cc21` [Example 2-551, (E)-3-[3-({1-[(12-cyclohexyl-3-ethoxy-6,7-dihydro-5-oxa-7a-azadibenzo[a,e]azulene-9-carbonyl)amino]cyclobutanecarbonyl}amino)phenyl]acrylic acid], under 100 nM.
Still for that read-out and setting: the result for `CCOc1ccc2c(c1)OCCn1c-2c(C2CCCCC2)c2ccc(C(=O)NC3(C(=O)Nc4ccc(/C=C/C(=O)O)cc4OC)CCC3)cc21` [Example 2-552, (E)-3-[4-({1-[(12-cyclohexyl-3-ethoxy-6,7-dihydro-5-oxa-7a-azadibenzo[a,e]azulene-9-carbonyl)amino]cyclobutanecarbonyl}amino)-3-methoxyphenyl]acrylic acid] reads under 100 nM; that for `O=C(O)c1ccc2c(C3CCCCC3)c3n(c2c1)CCOc1c(-c2ccccc2CCN2CCCCC2)cccc1-3` [Example 2-553, 12-cyclohexyl-4-{2-[2-(piperidin-1-yl)ethyl]phenyl}-6,7-dihydro-5-oxa-7a-azadibenzo[a,e]azulene-9-carboxylic acid monohydrochloride], under 100 nM.
Compound `O=C(O)c1ccc2c(C3CCCCC3)c3n(c2c1)CCOc1c(-c2ccccc2NCCN2CCCCC2)cccc1-3` [Example 2-554, 12-cyclohexyl-4-{2-[2-(piperidin-1-yl)ethylamino]phenyl}-6,7-dihydro-5-oxa-7a-azadibenzo[a,e]azulene-9-carboxylic acid dihydrochloride] showed an IC50 of under 100 nM.
On the same count and under the same terms, as for `CC(C)Oc1ccc2c(c1)OCCn1c-2c(C2CCCCC2)c2ccc(C(=O)O)cc21` [Example 2-555, 12-cyclohexyl-3-isopropoxy-6,7-dihydro-5-oxa-7a-azadibenzo[a,e]azulene-9-carboxylic acid], the figure is under 100 nM; as for `CC(C)Oc1ccc2c(c1)OCCn1c-2c(C2CCCCC2)c2ccc(C(=O)NC3(C(=O)Nc4ccc(/C=C/C(=O)O)cc4)CCC3)cc21` [Example 2-556, (E)-3-[4-({1-[(12-cyclohexyl-3-isopropoxy-6,7-dihydro-5-oxa-7a-azadibenzo[a,e]azulene-9-carbonyl)amino]cyclobutanecarbonyl}amino)phenyl]acrylic acid], under 100 nM; as for `CN(C)C(=O)C1Cn2c(c(C3CCCCC3)c3ccc(C(=O)O)cc32)-c2ccccc2O1` (stereo not drawn) [Example 3-4, 12-cyclohexyl-6-dimethylcarbamoyl-6,7-dihydro-5-oxa-7a-azadibenzo[a,e]azulene-9-carboxylic acid], under 100 nM.
Same read-out and setting: as for `O=C(O)c1ccc2c(C3CCCCC3)c3n(c2c1)COc1ccccc1-3` [Example 4-2, 11-cyclohexyl-5-oxa-6a-azabenzo[a]fluorene-8-carboxylic acid], the figure is 100 to 1000 nM; as for `O=C(O)c1ccc2c(C3CCCCC3)c3n(c2c1)CCCc1ccccc1-3` [Example 5-2, 13-cyclohexyl-6,7-dihydro-5H-benzo[3,4]azepino[1,2-a]indole-10-carboxylic acid], under 100 nM.
`O=C(O)c1ccc2c(C3CCCCC3)c3n(c2c1)Cc1ccccc1-3` [Example 5-3, 11-cyclohexyl-6H-isoindolo[2,1-a]indole-3-carboxylic acid] displayed a 50% inhibitory concentration (IC50) of 100 to 1000 nM.
Turning to `O=C(O)c1ccc2c(C3CCCCC3)c3n(c2c1)CCc1ccccc1-3` [Example 5-4, 12-cyclohexyl-5,6-dihydroindolo[2,1-a]isoquinoline-9-carboxylic acid], the 50% inhibitory concentration (IC50) was in the range of 100 to 1000 nM.
The same measure, in the same setting: the result for `O=C(O)c1ccc2c(C3CCCCC3)c3n(c2c1)C(O)c1ccccc1-3` (stereo not drawn) [Example 5-6, 11-cyclohexyl-6-hydroxy-6H-isoindolo[2,1-a]indole-3-carboxylic acid] reads 100 to 1000 nM; that for `O=C(O)c1ccc2c(C3CCCCC3)c3n(c2c1)CCCn1cccc1-3` [Example 6-2, 13-cyclohexyl-6,7-dihydro-5H-pyrrolo[2′,1′:3,4][1,4]diazepino[1,2-a]indole-10-carboxylic acid], 100 to 1000 nM.
On the same count and under the same terms, as for `O=C(O)c1ccc2c(C3CCCCC3)c3n(c2n1)CCOc1cc(OCc2cc(N4CCCC4=O)ccc2N2CCOCC2)ccc1-3` [Example 7-4, 12-cyclohexyl-3-[2-(morpholin-4-yl)-5-(2-oxopyrrolidin-1-yl)benzyloxy]-6,7-dihydro-5-oxa-7a,8-diazadibenzo[a,e]azulene-9-carboxylic acid dihydrochloride], the figure is under 100 nM.
Consider `CS(=O)(=O)c1ccc(N2CCOCC2)c(COc2ccc3c(c2)OCCn2c-3c(C3CCCCC3)c3ccc(C(=O)O)nc32)c1` [Example 7-5, 12-cyclohexyl-3-[5-methanesulfonyl-2-(morpholin-4-yl)benzyloxy]-6,7-dihydro-5-oxa-7a,8-diazadibenzo[a,e]azulene-9-carboxylic acid monohydrochloride], for which the IC50 is under 100 nM.
Same read-out and setting: as for `CC(=O)N(C)c1ccc(N2CCOCC2)c(COc2ccc3c(c2)OCCn2c-3c(C3CCCCC3)c3ccc(C(=O)O)nc32)c1` [Example 7-6, 3-[5-(N-acetyl-N-methylamino)-2-(morpholin-4-yl)benzyloxy]-12-cyclohexyl-6,7-dihydro-5-oxa-7a,8-diazadibenzo[a,e]azulene-9-carboxylic acid dihydrochloride], the figure is under 100 nM.
